From patent publication EP4603105A1, “PHARMACEUTICAL COMPOSITION CONTAINING CYCLIC COMPOUND HAVING SELECTIVE KRAS INHIBITORY EFFECT AGAINST HRAS AND NRAS” (CHUGAI SEIYAKU KABUSHIKI KAISHA, priority 2022, dated 2024)
*1 amine or outer side, *2 acyl side, *3 side chain or, on linkers, in order; H or OH if unused. Where a SMILES comes first, the peptide text is derived from it. Bridges are numbered along the chain shown (N, C = ends). [ ]: non-standard residue; d: D form. The star is where a group is joined. hPhe(3,5-F2-4-CF3) = N[C@@H](CCc1cc(F)c(C(F)(F)F)c(F)c1)C(=O)O; hPhe(3-Cl-4-CF3) = N[C@@H](CCc1ccc(C(F)(F)F)c(Cl)c1)C(=O)O; X29 = C#CCN([C@@H](Cc1ccc(C(F)(F)F)cc1)C(=O)[*:2])[*:1]; NPrPhe(4-CF3) = CCCN[C@@H](Cc1ccc(C(F)(F)F)cc1)C(=O)O; NMeGly(cPent) = CN[C@H](C(=O)O)C1CCCC1; Pro(4,4-F2) = O=C(O)[C@@H]1CC(F)(F)CN1; NMeGly(cBu) = CN[C@H](C(=O)O)C1CCC1; Hyp = O=C(O)[C@@H]1C[C@@H](O)CN1; NMeD = CN[C@@H](CC(=O)O)C(=O)O; NMeL = CN[C@@H](CC(C)C)C(=O)O; αMeS = C[C@](N)(CO)C(=O)O; Morpholide = C1CN(*)CCO1; NMeA = CN[C@@H](C)C(=O)O; Ac5c = NC1(C(=O)O)CCCC1; Aze = O=C(O)[C@@H]1CCN1; Sar = CNCC(=O)O; tBu = CC(C)(C)*

Legend:
[1] = system: human lung cancer strain NCI-H441; format: cell-based
Summary of the method: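 Readout: […] after the ATP-based reagent. Compound: serial dilutions in dimethyl sulfoxide.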

HRAS wild-type protein = HRAS wild-type protein (Homo sapiens, UniProt P01112); assay: Binding to HRAS by surface plasmon resonance (SPR), KD and KD ratio to KRAS
Sequence of HRAS wild-type protein (P01112 whole entry): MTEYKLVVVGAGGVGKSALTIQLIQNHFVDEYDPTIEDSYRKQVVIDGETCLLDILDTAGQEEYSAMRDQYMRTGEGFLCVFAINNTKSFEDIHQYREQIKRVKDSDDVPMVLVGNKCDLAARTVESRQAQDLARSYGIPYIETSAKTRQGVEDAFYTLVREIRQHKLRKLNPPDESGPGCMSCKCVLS
Summary of the method: (§1)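 Affinity is measured by surface plasmon resonance at 30°C against captured, GDP-loaded RAS carrying a biotinylated Avi tag. Compounds are titrated by single-cycle kinetics, and KD comes from a 1:1 fit.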

[2] = molecular target: GDP-bound NRAS wild-type protein (Homo sapiens, UniProt P01111); assay: Binding to NRAS by surface plasmon resonance (SPR), KD and KD ratio to KRAS
Sequence of GDP-bound NRAS wild-type protein (P01111 whole entry): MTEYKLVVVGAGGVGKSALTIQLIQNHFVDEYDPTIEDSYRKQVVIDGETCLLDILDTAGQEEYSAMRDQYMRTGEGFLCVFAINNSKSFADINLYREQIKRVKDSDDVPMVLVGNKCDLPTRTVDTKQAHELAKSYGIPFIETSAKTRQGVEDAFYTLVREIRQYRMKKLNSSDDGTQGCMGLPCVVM
Summary of the method: as §1

[3] = ratio of the KD value with respect to HRAS wild-type protein to the KD value with respect to KRAS
[4] = ratio of the KD value with respect to GDP-bound NRAS wild-type protein to the KD value with respect to KRAS
[5] = ratio of KD for HRAS wild-type protein to KD for KRAS
[6] = ratio of KD for GDP-bound NRAS wild-type protein to KD for KRAS
[7] = ratio of KD value for HRAS wild-type protein to KD value for KRAS (SPR)
[8] = ratio of KD value for GDP-bound NRAS wild-type protein to KD value for KRAS (SPR)

Row | Compound | IC50 [1] [nM] | HRAS /KRAS (HRAS wild-type protein; [3]) | NRAS /KRAS [2, 4] | HRAS /KRAS (HRAS wild-type protein; [5]) | NRAS /KRAS [2, 6] | HRAS /KRAS (HRAS wild-type protein; [7]) | NRAS /KRAS [2, 8]
1 | CCCN1C(=O)CN(C)C(=O)CN(C)C(=O)[C@H]([C@@H](C)CC)NC(=O)[C@H](CC(C)C)N(C)C(=O)C[C@@H](C(=O)N(C)C)N(C)C(=O)[C@H](C2CCCC2)N(C)C(=O)[C@](C)(COC(C)(C)C)NC(=O)[C@@H]2CCCN2C(=O)[C@H](CCc2cc(F)c(C(F)(F)F)c(F)c2)NC(=O)CN(C)C(=O)[C@@H]1Cc1ccc(C(F)(F)F)cc1 [PP0743] ([NMeL]I[Sar][Sar][NPrPhe(4-CF3)][Sar][hPhe(3,5-F2-4-CF3)]P[αMeS](tBu)[NMeGly(cPent)][NMeD]-NMe2; lactam N-11) | 76.3 | C (A compound having a KD ratio of 0.1 or more and less than 3 is denoted as C) | B (a compound having 3 or more and less than 10 is denoted as B) |  |  |  | 
2 | CCCN1C(=O)[C@@H]2CCN2C(=O)[C@H](C)N(C)C(=O)[C@H]([C@@H](C)CC)NC(=O)[C@H](C2CCC2)N(C)C(=O)C[C@@H](C(=O)N2CCOCC2)N(C)C(=O)[C@H](C2CCCC2)N(C)C(=O)C2(CCCC2)NC(=O)[C@@H]2CC(F)(F)CN2C(=O)[C@H](CCc2ccc(C(F)(F)F)c(Cl)c2)NC(=O)CN(C)C(=O)[C@@H]1Cc1ccc(C(F)(F)F)cc1 [PP0204] ([NMeGly(cBu)]I[NMeA][Aze][NPrPhe(4-CF3)][Sar][hPhe(3-Cl-4-CF3)][Pro(4,4-F2)][Ac5c][NMeGly(cPent)][NMeD]-Morpholide; lactam N-11) | 5.4 |  |  | C (A compound having a KD ratio of 0.1 or more and less than 3 is denoted as C) | C (A compound having a KD ratio of 0.1 or more and less than 3 is denoted as C) |  | 
3 | CC[C@H](C)[C@@H]1NC(=O)[C@H](CC(C)C)N(C)C(=O)C[C@@H](C(=O)N2CCOCC2)N(C)C(=O)[C@H](C2CCCC2)N(C)C(=O)C2(CCC2)NC(=O)[C@@H]2[C@@H](OCC3CC3)CCN2C(=O)[C@H](CCc2cc(F)c(C(F)(F)F)c(F)c2)NC(=O)CN(C)C(=O)[C@H](Cc2ccc(C(F)(F)F)cc2)N2CCCC[C@@H](C2=O)N(C)C(=O)CN(C)C1=O [PP1072] | 13 |  |  | B (a compound having 3 or more and less than 10 is denoted as B) | B (a compound having 3 or more and less than 10 is denoted as B) |  | 
4 | CCCN1C(=O)CN(C)C(=O)[C@@H]2CCN2C(=O)[C@H]([C@@H](C)CC)NC(=O)[C@H](CC(C)C)N(C)C(=O)C[C@@H](C(=O)N(C)C)NC(=O)[C@H](C2CCCC2)N(C)C(=O)C2(CCCC2)NC(=O)[C@@H]2CCCN2C(=O)[C@H](CCc2ccc(C(F)(F)F)c(Cl)c2)NC(=O)CN(C)C(=O)[C@@H]1Cc1ccc(C(F)(F)F)cc1 [PP0373] ([NMeL]I[Aze][Sar][NPrPhe(4-CF3)][Sar][hPhe(3-Cl-4-CF3)]P[Ac5c][NMeGly(cPent)]D-NMe2; lactam N-11) | 152 |  |  | B (a compound having 3 or more and less than 10 is denoted as B) | B (a compound having 3 or more and less than 10 is denoted as B) |  | 
5 | C#CCN1C(=O)CN(C)C(=O)CN(C)C(=O)[C@H]([C@@H](C)CC)NC(=O)[C@H](CC(C)C)N(C)C(=O)C[C@@H](C(=O)N2CCOCC2)N(C)C(=O)[C@H](C2CCCC2)N(C)C(=O)C2(CCCC2)NC(=O)[C@@H]2CCCN2C(=O)[C@H](CCc2ccc(C(F)(F)F)c(Cl)c2)NC(=O)CN(C)C(=O)[C@@H]1Cc1ccc(C(F)(F)F)cc1 [PP0130] ([NMeL]I[Sar][Sar][X29][Sar][hPhe(3-Cl-4-CF3)]P[Ac5c][NMeGly(cPent)][NMeD]-Morpholide; lactam N-11) | 8.8 |  |  | C (A compound having a KD ratio of 0.1 or more and less than 3 is denoted as C) | C (A compound having a KD ratio of 0.1 or more and less than 3 is denoted as C) |  | 
6 | CCO[C@@H]1C[C@H]2C(=O)NC3(CCC3)C(=O)N(C)[C@@H](C3CCCC3)C(=O)N(C)[C@H](C(=O)N(C)C)CC(=O)N(C)[C@@H](CC)C(=O)N[C@@H]([C@@H](C)CC)C(=O)N(C)CC(=O)N(C)[C@H]3CCCCCN(C3=O)[C@@H](Cc3ccc(F)c(Cl)c3)C(=O)N(C)CC(=O)N[C@@H](CCc3cc(F)c(C(F)(F)F)c(F)c3)C(=O)N2C1 [PP0909] | 58.1 |  |  | B (a compound having 3 or more and less than 10 is denoted as B) | B (a compound having 3 or more and less than 10 is denoted as B) |  | 

The next lines start with results.

Row | IC50 [1] [nM] | Compound | HRAS /KRAS (HRAS wild-type protein; [3]) | NRAS /KRAS [2, 4] | HRAS /KRAS (HRAS wild-type protein; [5]) | NRAS /KRAS [2, 6] | HRAS /KRAS (HRAS wild-type protein; [7]) | NRAS /KRAS [2, 8]
7 | 19.5 | CCO[C@@H]1C[C@H]2C(=O)NC3(CC(C)(C)C3)C(=O)N(C)[C@@H](C(CC)CC)C(=O)N(C)[C@H](C(=O)N3CCCC3)CC(=O)N(C)[C@@H](COC)C(=O)N[C@@H]([C@@H](C)CC)C(=O)N(C)CC(=O)N(C)[C@H]3C/C=C\CCN(C3=O)[C@@H](Cc3ccc(C(F)(F)F)cc3)C(=O)N(C)CC(=O)N[C@@H](CCc3ccc(C(F)(F)F)c(OC)c3)C(=O)N2C1 [PP2159] | A (a compound having 10 or more and less than 20 is denoted as A) | AA (a compound having 20 or more is denoted as AA) |  |  |  | 
8 | 6.4 | CC[C@H](C)[C@@H]1NC(=O)[C@H](CC(C)C)N(C)C(=O)C[C@@H](C(=O)N(C)C)N(C)C(=O)[C@H](C2CCCC2)N(C)C(=O)C2(CC(C)(C)C2)NC(=O)[C@@H]2C[C@H](C)CN2C(=O)[C@H](CCc2cc(F)c(C(F)(F)F)c(F)c2)NC(=O)CN(C)C(=O)[C@H](Cc2ccc(C(F)(F)F)cc2)N2CC/C=C\C[C@@H](C2=O)N(C)C(=O)CN(C)C1=O [PP1662] |  |  |  |  | B (a compound having 3 or more and less than 10 is denoted as B) | A (a compound having 10 or more and less than 20 is denoted as A)
9 | 2 | CCCN1C(=O)CN(C)C(=O)CNC(=O)[C@H]([C@@H](C)CC)NC(=O)[C@H](CC(C)C)N(C)C(=O)C[C@@H](C(=O)N(C)C)N(C)C(=O)[C@H](C2CCCC2)N(C)C(=O)C2(CCCC2)NC(=O)[C@@H]2C[C@@H](OCC)CN2C(=O)[C@H](CCc2ccc(C(F)(F)F)c(Cl)c2)NC(=O)CN(C)C(=O)[C@@H]1Cc1ccc(C(F)(F)F)cc1 [PP0421] ([NMeL]IG[Sar][NPrPhe(4-CF3)][Sar][hPhe(3-Cl-4-CF3)][Hyp](Et)[Ac5c][NMeGly(cPent)][NMeD]-NMe2; lactam N-11) | C (A compound having a KD ratio of 0.1 or more and less than 3 is denoted as C) | B (a compound having 3 or more and less than 10 is denoted as B) |  |  |  | 
10 | 9.1 | CCO[C@@H]1C[C@H]2C(=O)NC3(CC(C)(C)C3)C(=O)N(C)[C@@H](C3CCCC3)C(=O)N(C)[C@H](C(=O)N(C)CC)CC(=O)N(C)[C@@H](C3CC3)C(=O)N[C@@H]([C@@H](C)CC)C(=O)N(C)CC(=O)N(C)[C@H]3C/C=C\CCN(C3=O)[C@@H](Cc3ccc(C(F)(F)F)cc3)C(=O)N(C)CC(=O)N[C@@H](CCc3cc(F)c(C(F)(F)F)c(F)c3)C(=O)N2C1 [PP2036] | A (a compound having 10 or more and less than 20 is denoted as A) | A (a compound having 10 or more and less than 20 is denoted as A) |  |  |  | 
11 | 8.2 | CCC[C@H]1C(=O)N[C@@H]([C@@H](C)CC)C(=O)N(C)CC(=O)N(C)[C@H]2C/C=C\CCN(C2=O)[C@@H](Cc2ccc(C)cc2)C(=O)N(C)CC(=O)N[C@@H](CCc2ccc(C(F)(F)F)c(Cl)c2)C(=O)N2C[C@H](OCC)C[C@H]2C(=O)NC2(CC(C)(C)C2)C(=O)N(C)[C@@H](C(CC)CC)C(=O)N(C)[C@H](C(=O)N(C)C)CC(=O)N1C [PP2146] | A (a compound having 10 or more and less than 20 is denoted as A) | A (a compound having 10 or more and less than 20 is denoted as A) |  |  |  | 
12 | 79.3 | CCC[C@H]1C(=O)N[C@@H]([C@@H](C)CC)C(=O)N(C)CC(=O)N(C)[C@H]2C/C=C\CCN(C2=O)[C@@H](Cc2ccc(C(F)(F)F)cc2)C(=O)N(C)CC(=O)N[C@@H](CCc2cc(F)c(C(F)(F)F)c(F)c2)C(=O)N(CC)CC(=O)NC2(CC(C)(C)C2)C(=O)N(C)[C@@H](C2CCCC2)C(=O)N(C)[C@H](C(=O)N(C)C)CC(=O)N1C [PP1777] |  |  |  |  | B (a compound having 3 or more and less than 10 is denoted as B) | A (a compound having 10 or more and less than 20 is denoted as A)
13 | 13.8 | CCCN1C(=O)CN(C)C(=O)[C@@H]2CCN2C(=O)[C@H]([C@@H](C)CC)NC(=O)[C@H](CC(C)C)N(C)C(=O)C[C@@H](C(=O)N2CCOCC2)N(C)C(=O)[C@H](C2CCCC2)N(C)C(=O)C2(CCCC2)NC(=O)[C@@H]2C[C@@H](OCC)CN2C(=O)[C@H](CCc2ccc(C(F)(F)F)c(Cl)c2)NC(=O)CN(C)C(=O)[C@@H]1Cc1ccc(C(F)(F)F)cc1 [PP0310] ([NMeL]I[Aze][Sar][NPrPhe(4-CF3)][Sar][hPhe(3-Cl-4-CF3)][Hyp](Et)[Ac5c][NMeGly(cPent)][NMeD]-Morpholide; lactam N-11) |  |  | C (A compound having a KD ratio of 0.1 or more and less than 3 is denoted as C) | B (a compound having 3 or more and less than 10 is denoted as B) |  | 
14 | 75.5 | CCO[C@@H]1C[C@H]2C(=O)NC3(CC(C)(C)C3)C(=O)N(C)[C@@H](C(CC)CC)C(=O)N(C)[C@H](C(=O)N(C)C)CC(=O)N(C)[C@@H](CC3CCC3)C(=O)N[C@@H]([C@@H](C)CC)C(=O)N(C)CC(=O)N(C)[C@H]3C/C=C\CCN(C3=O)[C@@H](Cc3ccc(C)cc3)C(=O)N(C)CC(=O)N[C@@H](CCc3ccc(Cl)c(Cl)c3)C(=O)N2C1 [PP2120] | A (a compound having 10 or more and less than 20 is denoted as A) | AA (a compound having 20 or more is denoted as AA) |  |  |  | 
